# Laboratory results: ChEMBL document CHEMBL5608199, “Quaternized antimicrobial peptide mimics based on harmane as potent anti-MRSA agents by multi-target mechanism covering cell wall, cell membrane and intracellular targets” (Eur J Med Chem, 2024)
# Activity calls are given as the source filed them. No cut-off for these calls is given here.
# Experiments:
# Staphylococcus aureus [1] = experiment: Antibacterial activity against methicillin-resistant Staphylococcus aureus ATCC 43300 incubated for 18 hrs by two fold serial broth dilution method; assay type: functional
# Staphylococcus aureus [2] = experiment: Antibacterial activity against methicillin-resistant Staphylococcus aureus CGMCC 1.12409 incubated for 18 hrs by two fold serial broth dilution method; assay type: functional
# Staphylococcus aureus [3] = experiment: Antibacterial activity against methicillin-resistant Staphylococcus aureus ATCC 33591 incubated for 18 hrs by two fold serial broth dilution method; assay type: functional
# Staphylococcus aureus [4] = experiment: Antibacterial activity against Staphylococcus aureus ATCC 29213 incubated for 18 hrs by two fold serial broth dilution method; assay type: functional
# Staphylococcus aureus [5] = experiment: Antibacterial activity against Staphylococcus aureus CMCC 26003 incubated for 18 hrs by two fold serial broth dilution method; assay type: functional
# Escherichia coli = experiment: Antibacterial activity against Escherichia coli ATCC 8739 incubated for 18 hrs by two fold serial broth dilution method; assay type: functional
# Staphylococcus aureus [6] = experiment: Antibacterial activity against methicillin-resistant Staphylococcus aureus clinical isolate M-14 incubated for 18 hrs by two fold serial broth dilution method; assay type: functional
# Staphylococcus aureus [7] = experiment: Antibacterial activity against methicillin-resistant Staphylococcus aureus clinical isolate M-15 incubated for 18 hrs by two fold serial broth dilution method; assay type: functional
# Staphylococcus aureus [8] = experiment: Antibacterial activity against methicillin-resistant Staphylococcus aureus clinical isolate M-16 incubated for 18 hrs by two fold serial broth dilution method; assay type: functional
# Staphylococcus aureus [9] = experiment: Antibacterial activity against methicillin-resistant Staphylococcus aureus clinical isolate M-17 incubated for 18 hrs by two fold serial broth dilution method; assay type: functional
# Staphylococcus aureus [10] = experiment: Antibacterial activity against methicillin-resistant Staphylococcus aureus clinical isolate M-18 incubated for 18 hrs by two fold serial broth dilution method; assay type: functional
# Staphylococcus aureus [11] = experiment: Antibacterial activity against methicillin-resistant Staphylococcus aureus clinical isolate M-19 incubated for 18 hrs by two fold serial broth dilution method; assay type: functional
# Staphylococcus aureus [12] = experiment: Antibacterial activity against methicillin-resistant Staphylococcus aureus clinical isolate M-20 incubated for 18 hrs by two fold serial broth dilution method; assay type: functional
# Erythrocyte = experiment: Hemolytic activity at sheep Red blood cells at 0.5 to 128 ug/ml; assay type: toxicity, cell-based, Ovis aries; conditions: dose 0.5-128 µg/ml
# [13] = Hemolytic activity at sheep Red blood cells at 256 ug/ml; assay type: toxicity, cell-based, Ovis aries, Erythrocyte; conditions: sheep red blood cells (erythrocytes), at 256 µg/mL, read-out: Activity
# [14] = Cytotoxicity against human HTR-8/SVneo cells assessed as cell viability at 0.5 ug/ml by CCK-8 assay relative to control; assay type: toxicity, cell-based; conditions: at 0.5 µg/mL, read-out: Activity
# [15] = Cytotoxicity against human HTR-8/SVneo cells assessed as cell viability at 8 ug/ml by CCK-8 assay relative to control; assay type: toxicity, cell-based; conditions: at 8 µg/mL, read-out: Activity
# [16] = Stability in sheep plasma assessed as increase in MIC measured after 0 to 6 hrs; assay type: ADME, cell-free, Ovis aries; conditions: time 0-6 hrs
# Staphylococcus aureus [17] = experiment: Antibacterial activity against methicillin-resistant Staphylococcus aureus ATCC 33591 assessed as inhibition of bacterial growth at 0.5 ug/ml measured after 8 hrs relative to control; assay type: functional
# Staphylococcus aureus [18] = experiment: Bacteriostatic activity against methicillin-resistant Staphylococcus aureus ATCC 33591 assessed as log reduction in viable bacterial count at 1 to 4 times MIC measured at 10 hrs by time-kill assay; assay type: functional
# Staphylococcus aureus [19] = experiment: Bactericidal activity against methicillin-resistant Staphylococcus aureus ATCC 33591 assessed as log reduction in viable bacterial count at 8 times MIC measured after 10 hrs by time-kill assay; assay type: functional
# Staphylococcus aureus [20] = experiment: Antibacterial activity against methicillin-resistant Staphylococcus aureus ATCC 33591 infected in cyclophosphamide treated female KM mouse skin infection model assessed as log reduction in bacterial load in abscess at 13.2 mg/kg administered for 4 days and measured on day 5; assay type: functional; conditions: time 5 day
# Staphylococcus aureus [21] = experiment: Antibacterial activity against methicillin-resistant Staphylococcus aureus ATCC 33591 infected in cyclophosphamide treated female KM mouse skin infection model assessed as reduction in bacterial load in abscess administered for 4 days and measured on day 5; assay type: functional, organism-based; conditions: dose 3.3-13.2 mg/kg, time 5.0 day
# Staphylococcus aureus [22] = experiment: Antibacterial activity against methicillin-resistant Staphylococcus aureus ATCC 33591 infected in cyclophosphamide treated female KM mouse skin infection model assessed as log reduction in bacterial load in abscess at 3.3 mg/kg administered for 4 days and measured on day 5; assay type: functional; conditions: time 5 day
# Staphylococcus aureus [23] = experiment: (§1) Antibacterial activity against methicillin-resistant Staphylococcus aureus ATCC 33591 infected in cyclophosphamide treated female KM mouse skin infection model assessed as reduction in number of bacterial clones in skin at 3.3 to 13.2 mg/kg administered for 4 days and measured on day 5; assay type: functional, organism-based; conditions: dose 3.3-13.2 mg/kg, time 5.0 day
# Staphylococcus aureus [24] = experiment: as §1, with “reduction in inflammatory cell infiltration at 3.3” for “reduction in number of bacterial clones in skin at 3.3”, “day 5 by H and E staining based analysis” for “day 5”; assay type: functional, organism-based; conditions: dose 3.3-13.2 mg/kg, time 5.0 day
# Staphylococcus aureus [25] = experiment: Induction of morphological changes in methicillin-resistant Staphylococcus aureus ATCC 33591 assessed as appearance of irregular cell morphology at 1 ug/ml measured after 6 hrs by SEM analysis; assay type: functional, organism-based; conditions: dose 1.0 µg/ml
# Staphylococcus aureus [26] = experiment: Induction of morphological changes in methicillin-resistant Staphylococcus aureus ATCC 33591 assessed as appearance of cracked cell morphology at 1 ug/ml measured after 6 hrs by SEM analysis; assay type: functional, organism-based; conditions: dose 1.0 µg/ml
# Staphylococcus aureus [27] = experiment: Induction of morphological changes in methicillin-resistant Staphylococcus aureus ATCC 33591 assessed as appearance of adhesive cell morphology at 1 ug/ml measured after 6 hrs by SEM analysis; assay type: functional, organism-based; conditions: dose 1.0 µg/ml
# Staphylococcus aureus [28] = experiment: Antibacterial activity against methicillin-resistant Staphylococcus aureus ATCC 33591 assessed as neutralization of negative charge in cell wall by measuring increase in surface potential; assay type: functional, organism-based; conditions: dose 0-256 µg/ml
# Lipoteichoic acid = experiment: Displacement of BODIPY-TR-cadaverine from methicillin-resistant Staphylococcus aureus ATCC 33591 lipoteichoic acid assessed as increase in fluorescence intensity; conditions: dose 0.5-4 µg/ml
# Staphylococcus aureus [29] = experiment: Antibacterial activity against methicillin-resistant Staphylococcus aureus ATCC 33591 assessed as inhibition of bacterial growth in presence of 0 to 128 ug/ml peptidoglycan by exogenous addition assay (reference value: 0.5 ug/ml); assay type: functional
# Cell membrane [30] = experiment: Disruption of membrane integrity in methicillin-resistant Staphylococcus aureus ATCC 33591 assessed as appearance of blue and green fluorescence at 1 ug/ml by DAPI/SYTOX Green double staining assay; assay type: cell membranes; conditions: dose 1.0 µg/ml
# Cell membrane [31] = experiment: Disruption of membrane integrity in methicillin-resistant Staphylococcus aureus ATCC 33591 assessed as increase in fluorescence intensity by PI staining based fluorescence assay; assay type: cell membranes; conditions: dose 0-4 µg/ml
# Cell membrane [32] = experiment: Disruption of membrane integrity in methicillin-resistant Staphylococcus aureus ATCC 33591 assessed as increase in protein leakage; assay type: cell membranes; conditions: dose 0-4 µg/ml
# Cell membrane [33] = experiment: Disruption of membrane integrity in methicillin-resistant Staphylococcus aureus ATCC 33591 assessed as increase in nucleic acid leakage; assay type: cell membranes; conditions: dose 0-4 µg/ml
# Cell membrane [34] = experiment: Disruption of membrane integrity in methicillin-resistant Staphylococcus aureus ATCC 33591 assessed as fold increase in nucleic acid leakage at 1 ug/ml relative to control; assay type: cell membranes; conditions: dose 1.0 µg/ml
# Cell membrane [35] = experiment: Induction of membrane depolarization in methicillin-resistant Staphylococcus aureus ATCC 33591 assessed as increase in fluorescence intensity at 1 to 4 times MIC measured after 0 to 120 mins by DiSC3(5) staining based assay; assay type: cell membranes; conditions: time 0-120 min
# Cell membrane [36] = experiment: Induction of membrane depolarization in methicillin-resistant Staphylococcus aureus ATCC 33591 assessed as increase in fluorescence intensity at 1 to 4 times MIC by DiSC3(5) staining based assay; assay type: cell membranes; conditions: time 0-120 min, TDE = time-dependent effect
# Staphylococcus aureus [37] = experiment: Antibacterial activity against methicillin-resistant Staphylococcus aureus ATCC 33591 assessed as reduction in metabolic activity by alamar blue assay; assay type: functional, organism-based; conditions: dose 0-4 µg/ml
# Staphylococcus aureus [38] = experiment: Antibacterial activity against methicillin-resistant Staphylococcus aureus ATCC 33591 assessed as reduction in LDH activity; assay type: functional, organism-based; conditions: dose 0-4 µg/ml
# Staphylococcus aureus [39] = experiment: Antibacterial activity against methicillin-resistant Staphylococcus aureus ATCC 33591 assessed as reduction in LDH activity at 4 ug/ml measured after 8 hrs relative to control; assay type: functional; parameters: scale not given: the % may be the effect or the level left; conditions: dose 4 µg/ml
# Staphylococcus aureus [40] = experiment: Induction of ROS generation in methicillin-resistant Staphylococcus aureus ATCC 33591 assessed as increase in ROS level; assay type: functional, organism-based; conditions: dose 0-4 µg/ml
# Staphylococcus aureus [41] = experiment: Induction of ROS generation in methicillin-resistant Staphylococcus aureus ATCC 33591 assessed as fold increase in ROS level at 0.5 ug/ml relative to control; assay type: functional; conditions: dose 0.5 µg/ml
# Staphylococcus aureus [42] = experiment: Induction of oxidative damage in methicillin-resistant Staphylococcus aureus ATCC 33591 assessed as loss of GSH activity; assay type: functional, organism-based; conditions: dose 0-4 µg/ml
# Staphylococcus aureus [43] = experiment: Induction of oxidative damage in methicillin-resistant Staphylococcus aureus ATCC 33591 assessed as reduction in SOD activity; assay type: functional, organism-based; conditions: dose 0-4 µg/ml
# Calf thymus DNA [44] = experiment: Binding affinity to calf thymus DNA assessed as reduction in fluorescence intensity at 3 x 10^-5M by fluorescence spectroscopy; assay type: nucleic-acid assay; conditions: Bos taurus; dose 3.0 10^-5M
# Calf thymus DNA [45] = experiment: Binding affinity to calf thymus DNA assessed as increase in absorption wavelength intensity at 0 to 2.4 x 10^-5M by absorption spectroscopy; assay type: nucleic-acid assay; conditions: Bos taurus; dose 0-2.4 10^-5M
smiles,measurement,setting,value
CC[n+]1ccc2c3ccccc3n(CC[N+](C)(C)CC)c2c1C.[Br-].[Br-],MIC,Staphylococcus aureus [1],> 128 µg/mL
same,MIC,Staphylococcus aureus [2],> 128 µg/mL
same,MIC,Staphylococcus aureus [3],> 128 µg/mL
same,MIC,Staphylococcus aureus [4],> 128 µg/mL
same,MIC,Staphylococcus aureus [5],> 128 µg/mL
same,MIC,Escherichia coli,> 128 µg/mL
CCC[n+]1ccc2c3ccccc3n(CCN(CC)CC)c2c1C.[Br-],MIC,Staphylococcus aureus [1],> 128 µg/mL
same,MIC,Staphylococcus aureus [2],> 128 µg/mL
same,MIC,Staphylococcus aureus [3],128 µg/mL
same,MIC,Staphylococcus aureus [4],> 128 µg/mL
same,MIC,Staphylococcus aureus [5],64 µg/mL
same,MIC,Escherichia coli,> 128 µg/mL
Cc1nccc2c3ccccc3n(CCCCCn3c4ccccc4c4ccnc(C)c43)c12,MIC,Staphylococcus aureus [1],> 128 µg/mL
same,MIC,Staphylococcus aureus [2],> 128 µg/mL
same,MIC,Staphylococcus aureus [3],> 128 µg/mL
same,MIC,Staphylococcus aureus [4],> 128 µg/mL
same,MIC,Staphylococcus aureus [5],> 128 µg/mL
same,MIC,Escherichia coli,> 128 µg/mL
Cc1nccc2c3ccccc3n(CCCCn3c4ccccc4c4ccnc(C)c43)c12,MIC,Staphylococcus aureus [1],> 128 µg/mL
same,MIC,Staphylococcus aureus [2],> 128 µg/mL
same,MIC,Staphylococcus aureus [3],> 128 µg/mL
same,MIC,Staphylococcus aureus [4],> 128 µg/mL
same,MIC,Staphylococcus aureus [5],> 128 µg/mL
same,MIC,Escherichia coli,> 128 µg/mL
Cc1c2c(cc[n+]1C)c1ccccc1n2CCCCCCCCn1c2ccccc2c2cc[n+](C)c(C)c21.[I-].[I-],MIC,Staphylococcus aureus [1],2 µg/mL
same,MIC,Staphylococcus aureus [2],1 µg/mL
same,MIC,Staphylococcus aureus [3],0.5 µg/mL
same,MIC,Staphylococcus aureus [4],4 µg/mL
same,MIC,Staphylococcus aureus [5],0.5 µg/mL
same,MIC,Escherichia coli,8 µg/mL
same,MIC,Staphylococcus aureus [6],1 µg/mL
same,MIC,Staphylococcus aureus [7],2 µg/mL
same,MIC,Staphylococcus aureus [8],1 µg/mL
same,MIC,Staphylococcus aureus [9],1 µg/mL
same,MIC,Staphylococcus aureus [10],2 µg/mL
same,MIC,Staphylococcus aureus [11],1 µg/mL
same,MIC,Staphylococcus aureus [12],1 µg/mL
same,Activity,Erythrocyte,Non-Toxic
same,hemolysis at 256 ug/ml,[13],7.71%
same,viability at 0.5 ug/ml,[14],110%
same,viability at 8 ug/ml,[15],97.8%
same,Stability,[16],Stable
same,inhibition at 0.5 µg/mL,Staphylococcus aureus [17],100%
same,log(activity),Staphylococcus aureus [18],<3
same,log(activity),Staphylococcus aureus [19],3.44
same,log(activity),Staphylococcus aureus [20],4.06
same,Activity,Staphylococcus aureus [21],Dose-Dependent Effect
same,log(activity),Staphylococcus aureus [22],1.27
same,Activity,Staphylococcus aureus [23],Active
same,Activity,Staphylococcus aureus [24],Active
same,Activity,Staphylococcus aureus [25],Active
same,Activity,Staphylococcus aureus [26],Active
same,Activity,Staphylococcus aureus [27],Active
same,Activity,Staphylococcus aureus [28],Dose-Dependent Effect
same,Activity,Lipoteichoic acid,Dose-Dependent Effect
same,MIC,Staphylococcus aureus [29],8 µg/mL
same,Activity,Cell membrane [30],Active
same,Activity,Cell membrane [31],Dose-Dependent Effect
same,Activity,Cell membrane [32],Dose-Dependent Effect
same,Activity,Cell membrane [33],Dose-Dependent Effect
same,fold change (FC),Cell membrane [34],28
same,Activity,Cell membrane [35],Dose-Dependent Effect
same,Activity,Cell membrane [36],Tde
same,Activity,Staphylococcus aureus [37],Dose-Dependent Effect
same,Activity,Staphylococcus aureus [38],Dose-Dependent Effect
same,Activity,Staphylococcus aureus [39],87.21%
same,Activity,Staphylococcus aureus [40],Dose-Dependent Effect
same,fold change (FC),Staphylococcus aureus [41],1.25
same,Activity,Staphylococcus aureus [42],Dose-Dependent Effect
same,Activity,Staphylococcus aureus [43],Dose-Dependent Effect
same,Activity,Calf thymus DNA [44],Active
same,Activity,Calf thymus DNA [45],Active
